From US5066676A, “Sulfonamido derivative inhibiting the aldose reductase enzyme system and pharmaceutical compositions containing them” (Laboratori Baldacci SpA, priority 1987, dated 1991)
pIC50: −log10 of the molar value.

Assays:
Acute toxicity: mice = settings: in vivo, mouse (Swiss), read-out: % Death
Experimental: (§1) The toxicity tests after only one administration have been carried out on two animal species (mice and rats), using two administration routes (os, iv).
For these tests Swiss mice have been used, of both sexes, having average weight 20 g, fasted after 18 hours and administered with water ad libitum. The animals were maintained under standard environment conditions (temperature: 20°-22° C. and moisture 50%).
(§2) The compounds have been administered by gastric probe, suspended in Methocell or by injection (iv) dissolved in physiological solution with the addition of sodium bicarbonate.
(§3) The animals have been kept under observation for 15 days. The controls have been carried out several times in the first days and twice a day in the next days. In the table 1 the conditions used and the results obtained are reported.

Acute toxicity: rat = settings: in vivo, rat (Wistar), 20 ml/kg, read-out: % Death
Source text: as §1, §2, §3
Wistar rats, of both sexes have been used of average weight of 120 g, fasted after 18 hours and with water at libitum. The conditions of stalling and the administration ways were the same as those reported in the preceeding paragraph (acute toxicity: mouse).

aldose reductase = target: T1, aldose reductase (Bos taurus, UniProt P16116); experiment: In vitro inhibition of aldose reductase activity of raw extracts from bovine crystalline lens; assay type: biochemical; settings: glyceraldehyde substrate, NADPH, pH 6.8, 37° C.; read-out: IC50 on the aldose reductase activity of raw extracts originating from bovine crystalline lens
T1 construct: 4 bovine crystalline lenses (8 g) are homogenized by means of Potter in ice bath; from tissue; host or cells: bovine crystalline lens
Experimental: "In vitro" tests have been carried out to evalute the inhibition of the aldose reductase activity, prepared from the extract of bovine crystalline lenses.
PREPARATION OF THE RAW EXTRACTS
4 bovine crystalline lenses (8 g) are homogenized by means of Potter in ice bath with 40 ml of 50 mM phosphate buffer, pH 6.8, containing 2-mercaptoethanol pH ([…]). After centrifugation (12.000×g -20 min-4° C.) the supernatant is brought to 40% saturation with an ammonium sulphate and centrifugated again (14.000×g). The supernatant is then brought to the 80% saturation ((NH4)2 SO4) and, after centrifugation for 20 minutes and at 14.000×g, the sedimented matter is recovered and suspended in 7 ml of phosphate buffer. The enzymatic preparation is dialyzed by ultrafiltration with AMICON ultrafiltration cell.
DOSAGE OF THE ENZYMATIC ACTIVITY
The reference cuvette contains all the several substances apart from the substrate.

[1] = test system: galactosemic cataract in the rat; experiment: Action on the appearance of the galactosemic cataract (rat); assay type: in vivo
Experimental: (§4) With the compound bearing the abbreviation ARI 6 the following tests have been carried out in the rat and in the rabbit.
Action on the appearance of the galactosemic cataract (rat)
Effects of the administration of ARI-6 (5 and 25 mg/kg/die, os)
on the appearance of the galactosemic cataract in the rat.
[…] In the brackets the number of animals for each group is indicated.
The diet contains D-galactose 50%.
Effects of the administration of ARI-1 (5 and 25 mg/kg/die, os)

[2] = test system: diabetic cataract in the rat; experiment: Action on the appearance of the diabetic cataract (rat); assay type: in vivo; settings: Table 7, 25 mg/kg/die per os
Experimental: as §4
Action on the appearance of the diabetic cataract (rat).
Effects of the administration of ARI 6 (25 mg/kg/die, per os)
on the appearance of the diabetic cataract in the rat.
The values are expressed as percentages. Within brackets there are indicated the animals for each group.
Effects of the administration of ARI-1 (25 mg/kg/die, per os)

[3] = Table 6, 5 mg/kg/die os, day 5 of diet
[4] = Table 6, 5 mg/kg/die os, day 10 of diet, * p < 0.05 vs controls
[5] = Table 6, 5 mg/kg/die os, day 15 of diet, * p < 0.05 vs controls
[6] = Table 6, 5 mg/kg/die os, day 20 of diet, * p < 0.05 vs controls
[7] = Table 6, 5 mg/kg/die os, day 25 of diet, * p < 0.05 vs controls
[8] = Table 6, 5 mg/kg/die os, day 30 of diet, * p < 0.05 vs controls
[9] = Table 6, 5 mg/kg/die os, day 35 of diet, * p < 0.05 vs controls
[10] = Table 6, 5 mg/kg/die os, day 40 of diet, * p < 0.05 vs controls
[11] = Table 6, 5 mg/kg/die os, day 45 of diet, * p < 0.05 vs controls
[12] = Table 6, 5 mg/kg/die os, day 50 of diet
[13] = Table 6, 25 mg/kg/die os, day 5 of diet
[14] = Table 6, 25 mg/kg/die os, day 10 of diet, * p < 0.05 vs controls
[15] = Table 6, 25 mg/kg/die os, day 15 of diet, * p < 0.05 vs controls
[16] = Table 6, 25 mg/kg/die os, day 20 of diet, * p < 0.05 vs controls
[17] = Table 6, 25 mg/kg/die os, day 25 of diet, * p < 0.05 vs controls
[18] = Table 6, 25 mg/kg/die os, day 30 of diet, * p < 0.05 vs controls
[19] = Table 6, 25 mg/kg/die os, day 35 of diet, * p < 0.05 vs controls
[20] = Table 6, 25 mg/kg/die os, day 40 of diet, * p < 0.05 vs controls
[21] = Table 6, 25 mg/kg/die os, day 45 of diet, * p < 0.05 vs controls
[22] = Table 6, 25 mg/kg/die os, day 50 of diet
[23] = day 10 from streptozotocine, * p < 0.05 vs controls
[24] = day 15 from streptozotocine, * p < 0.05 vs controls
[25] = day 20 from streptozotocine, * p < 0.05 vs controls
[26] = day 25 from streptozotocine, * p < 0.05 vs controls
[27] = day 30 from streptozotocine, * p < 0.05 vs controls
[28] = day 35 from streptozotocine, * p < 0.05 vs controls
[29] = day 40 from streptozotocine, * p < 0.05 vs controls
[30] = day 45 from streptozotocine, * p < 0.05 vs controls
[31] = day 50 from streptozotocine, * p < 0.05 vs controls

Cc1cc(C)c(S(=O)(=O)N(C)CC(=O)O)cc1S(=O)(=O)N(C)CC(=O)O [ARI 1, 4,6-dimethyl-1,3-bis (N-methyl-N-caboxymethl) sulfamoybenzene]
mortality at 360 h (Acute toxicity: mice; po, 5000 mg/kg/os): 0%
mortality at 360 h (Acute toxicity: mice; 500 mg/kg/iv, 20 ml/kg): 0%
mortality at 360 h (Acute toxicity: rat; po, 5000 mg/kg/os): 0%
mortality at 360 h (Acute toxicity: rat; 500 mg/kg/iv): 0%
pIC50 (aldose reductase): 5.44
number of eyes with cataract on the total number of observed eyes [1, 3]: 0/20
percentage of eyes with cataract [1, 3]: 0.0%
number of eyes with cataract on the total number of observed eyes [1, 4]: 0/20
percentage of eyes with cataract [1, 4]: 0.0%
number of eyes with cataract on the total number of observed eyes [1, 5]: 0/20
percentage of eyes with cataract [1, 5]: 0.0%
number of eyes with cataract on the total number of observed eyes [1, 6]: 0/20
percentage of eyes with cataract [1, 6]: 0.0%
number of eyes with cataract on the total number of observed eyes [1, 7]: 3/20
percentage of eyes with cataract [1, 7]: 15.0%
number of eyes with cataract on the total number of observed eyes [1, 8]: 4/20
percentage of eyes with cataract [1, 8]: 20.0%
number of eyes with cataract on the total number of observed eyes [1, 9]: 8/20
percentage of eyes with cataract [1, 9]: 40.0%
number of eyes with cataract on the total number of observed eyes [1, 10]: 8/20
percentage of eyes with cataract [1, 10]: 100.0%
number of eyes with cataract on the total number of observed eyes [1, 11]: 20/20
percentage of eyes with cataract [1, 11]: 100.0%
number of eyes with cataract on the total number of observed eyes [1, 12]: 20/20
percentage of eyes with cataract [1, 12]: 100.0%
number of eyes with cataract on the total number of observed eyes [1, 13]: 0/20
percentage of eyes with cataract [1, 13]: 0.0%
number of eyes with cataract on the total number of observed eyes [1, 14]: 0/20
percentage of eyes with cataract [1, 14]: 0.0%
number of eyes with cataract on the total number of observed eyes [1, 15]: 0/20
percentage of eyes with cataract [1, 15]: 0.0%
number of eyes with cataract on the total number of observed eyes [1, 16]: 0/20
percentage of eyes with cataract [1, 16]: 0.0%
number of eyes with cataract on the total number of observed eyes [1, 17]: 0/20
percentage of eyes with cataract [1, 17]: 0.0%
number of eyes with cataract on the total number of observed eyes [1, 18]: 0/20
percentage of eyes with cataract [1, 18]: 0.0%
number of eyes with cataract on the total number of observed eyes [1, 19]: 0/20
percentage of eyes with cataract [1, 19]: 0.0%
number of eyes with cataract on the total number of observed eyes [1, 20]: 3/20
percentage of eyes with cataract [1, 20]: 15.0%
number of eyes with cataract on the total number of observed eyes [1, 21]: 5/20
percentage of eyes with cataract [1, 21]: 25.0%
number of eyes with cataract on the total number of observed eyes [1, 22]: 20/20
percentage of eyes with cataract [1, 22]: 100.0%
number of eyes with cataract with respect the total number of observed eyes ([2]; day 5 from streptozotocine): 0/20
percentage of eyes with cataract ([2]; day 5 from streptozotocine): 0.0%
number of eyes with cataract with respect the total number of observed eyes [2, 23]: 0/20
percentage of eyes with cataract [2, 23]: 0.0%
number of eyes with cataract with respect the total number of observed eyes [2, 24]: 0/20
percentage of eyes with cataract [2, 24]: 0.0%
number of eyes with cataract with respect the total number of observed eyes [2, 25]: 0/20
percentage of eyes with cataract [2, 25]: 0.0%
number of eyes with cataract with respect the total number of observed eyes [2, 26]: 0/20
percentage of eyes with cataract [2, 26]: 0.0%
number of eyes with cataract with respect the total number of observed eyes [2, 27]: 0/20
percentage of eyes with cataract [2, 27]: 0.0%
number of eyes with cataract with respect the total number of observed eyes [2, 28]: 0/20
percentage of eyes with cataract [2, 28]: 0.0%
number of eyes with cataract with respect the total number of observed eyes [2, 29]: 4/20
percentage of eyes with cataract [2, 29]: 20.0%
number of eyes with cataract with respect the total number of observed eyes [2, 30]: 6/20
percentage of eyes with cataract [2, 30]: 30.0%
number of eyes with cataract with respect the total number of observed eyes [2, 31]: 20/20
percentage of eyes with cataract [2, 31]: 100.0%
